Results as given in patent US20100267561A1, “HERBICIDAL PYRIDAZINONE DERIVATIVES” (priority 2007, published 2010).
Read-outs that look alike come from different tables or passages of the source.

Legend:
Assay in all cases: Test B pre-/postemergence plant response
Format in all cases: in vivo
[1] = system: green foxtail (Setaria viridis); details: Setaria viridis, pre-emergence; Preemergence, 250 g ai/ha; scale 0 to 100; read-out: Plant response rating, Foxtail, Green
Outline: (§1)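 Preemergence and postemergence (plants 2-18 cm, 1- to 4-leaf stage) applications used test chemicals in a non-phytotoxic solvent with surfactant. Plants were held in a greenhouse 13 to 15 days, then rated visually against controls on a 0-100 scale (0 no effect, 100 complete control).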

[2] = system: velvetleaf (Abutilon theophrasti); details: Abutilon theophrasti, read-out: Plant response rating, Velvetleaf; for pest or weed control at 31 g/ha: 31 g ai/ha, 100 complete control; for pest or weed control at 62 g/ha: 62 g ai/ha; for pest or weed control at 62 g/ha / pest or weed control at 125 g/ha / pest or weed control at 250 g/ha: scale 0 to 100; for pest or weed control at 125 g/ha: 125 g ai/ha; for pest or weed control at 250 g/ha: 250 g ai/ha
Outline: as §1

[3] = system: large crabgrass (Digitaria sanguinalis); details: Digitaria sanguinalis, read-out: Plant response rating, Crabgrass, Large; for pest or weed control at 31 g/ha: 31 g ai/ha, 100 complete control; for pest or weed control at 62 g/ha: 62 g ai/ha; for pest or weed control at 62 g/ha / pest or weed control at 125 g/ha / pest or weed control at 250 g/ha: scale 0 to 100; for pest or weed control at 125 g/ha: 125 g ai/ha; for pest or weed control at 250 g/ha: 250 g ai/ha
Outline: as §1

[4] = system: catchweed bedstraw (Galium aparine); details: Galium aparine, pre-emergence, Preemergence, read-out: Plant response rating, Galium
Outline: as §1

[5] = system: giant foxtail (Setaria faberii); details: Setaria faberi, read-out: Plant response rating, Foxtail, Giant; for pest or weed control at 31 g/ha: 31 g ai/ha, 100 complete control; for pest or weed control at 62 g/ha: 62 g ai/ha; for pest or weed control at 62 g/ha / pest or weed control at 125 g/ha / pest or weed control at 250 g/ha: scale 0 to 100; for pest or weed control at 125 g/ha: 125 g ai/ha; for pest or weed control at 250 g/ha: 250 g ai/ha
Outline: as §1

[6] = system: wild oat (Avena fatua); details: Avena fatua, read-out: Plant response rating, Oat, Wild; for pest or weed control at 31 g/ha: 31 g ai/ha, 100 complete control; for pest or weed control at 62 g/ha: 62 g ai/ha; for pest or weed control at 62 g/ha / pest or weed control at 125 g/ha / pest or weed control at 250 g/ha: scale 0 to 100; for pest or weed control at 125 g/ha: 125 g ai/ha; for pest or weed control at 250 g/ha: 250 g ai/ha
Outline: as §1

[7] = system: downy bromegrass (Bromus tectorum); details: Bromus tectorum, read-out: Plant response rating, Bromegrass, Downy; for pest or weed control at 31 g/ha: 31 g ai/ha, 100 complete control; for pest or weed control at 62 g/ha: 62 g ai/ha; for pest or weed control at 125 g/ha: 125 g ai/ha; for pest or weed control at 250 g/ha: 250 g ai/ha
Outline: as §1

[8] = system: morningglory (Ipomoea coccinea); details: Ipomoea, read-out: Plant response rating, Morningglory; for pest or weed control at 62 g/ha: 62 g ai/ha; for pest or weed control at 62 g/ha / pest or weed control at 125 g/ha / pest or weed control at 250 g/ha: scale 0 to 100; for pest or weed control at 125 g/ha: 125 g ai/ha; for pest or weed control at 250 g/ha: 250 g ai/ha
Outline: as §1

[9] = post-emergence, Postemergence, scale 0 to 100, 0 no effect
[10] = pre-emergence, Preemergence, 0 to 100 scale, 0 no effect
[11] = post-emergence, Postemergence, scale 0 to 100
[12] = pre-emergence, Preemergence, scale 0 to 100

Molecule Cc1cc(-c2ccc(C(F)(F)F)cc2)nn1-c1c(O)cnn(C)c1=O [Compound 1, 5-hydroxy-2-methyl-4-[5-methyl-3-[4-(trifluoromethyl)phenyl]-1H-pyrazol-1-yl]-3(2H)-pyridazinone] has a pest or weed control at 250 g/ha [1] of 100%, a pest or weed control at 31 g/ha [2, 9] of 0% and a pest or weed control at 62 g/ha ([2]; post-emergence, Postemergence) of 0%. The pest or weed control at 125 g/ha ([2]; post-emergence, Postemergence) was 0%, the pest or weed control at 250 g/ha ([2]; post-emergence, Postemergence) was 50% and the pest or weed control at 31 g/ha [2, 10] was 0%. The pest or weed control at 62 g/ha ([2]; pre-emergence, Preemergence) was 0%, the pest or weed control at 125 g/ha ([2]; pre-emergence, Preemergence) was 0% and the pest or weed control at 250 g/ha ([2]; pre-emergence, Preemergence) was 50%. For the same molecule, the pest or weed control at 31 g/ha [3, 9] was 80%, the pest or weed control at 62 g/ha ([3]; post-emergence, Postemergence) was 90% and the pest or weed control at 125 g/ha ([3]; post-emergence, Postemergence) was 100%. The pest or weed control at 250 g/ha ([3]; post-emergence, Postemergence) was 100%, the pest or weed control at 31 g/ha [3, 10] was 98% and the pest or weed control at 62 g/ha ([3]; pre-emergence, Preemergence) was 100%. For the same molecule, the pest or weed control at 125 g/ha ([3]; pre-emergence, Preemergence) was 100%, the pest or weed control at 250 g/ha ([3]; pre-emergence, Preemergence) was 100% and the pest or weed control at 31 g/ha ([4]; 31 g ai/ha, 0 to 100 scale, 0 no effect, 100 complete control) was 0%. For the same molecule, the pest or weed control at 62 g/ha ([4]; 62 g ai/ha, scale 0 to 100) was 0%, the pest or weed control at 125 g/ha ([4]; 125 g ai/ha, scale 0 to 100) was 0% and the pest or weed control at 250 g/ha ([4]; 250 g ai/ha, scale 0 to 100) was 0%. The pest or weed control at 31 g/ha [5, 9] was 100%, the pest or weed control at 62 g/ha ([5]; post-emergence, Postemergence) was 100% and the pest or weed control at 125 g/ha ([5]; post-emergence, Postemergence) was 100%. It also gave a pest or weed control at 250 g/ha ([5]; post-emergence, Postemergence) of 100%, a pest or weed control at 31 g/ha [5, 10] of 100% and a pest or weed control at 62 g/ha ([5]; pre-emergence, Preemergence) of 100%. The pest or weed control at 125 g/ha ([5]; pre-emergence, Preemergence) was 100%, the pest or weed control at 250 g/ha ([5]; pre-emergence, Preemergence) was 100% and the pest or weed control at 31 g/ha [6, 9] was 90%. It also gave a pest or weed control at 62 g/ha ([6]; post-emergence, Postemergence) of 100%, a pest or weed control at 125 g/ha ([6]; post-emergence, Postemergence) of 100% and a pest or weed control at 250 g/ha ([6]; post-emergence, Postemergence) of 100%. The pest or weed control at 31 g/ha [6, 10] was 60%, the pest or weed control at 62 g/ha ([6]; pre-emergence, Preemergence) was 85% and the pest or weed control at 125 g/ha ([6]; pre-emergence, Preemergence) was 90%. For the same molecule, the pest or weed control at 250 g/ha ([6]; pre-emergence, Preemergence) was 98%, the pest or weed control at 31 g/ha [7, 9] was 30% and the pest or weed control at 62 g/ha [7, 11] was 60%. For the same molecule, the pest or weed control at 125 g/ha [7, 11] was 95%, the pest or weed control at 250 g/ha [7, 11] was 100% and the pest or weed control at 31 g/ha [7, 10] was 40%. For the same molecule, the pest or weed control at 62 g/ha [7, 12] was 80%, the pest or weed control at 125 g/ha [7, 12] was 80% and the pest or weed control at 250 g/ha ([7]; pre-emergence, Preemergence, scale 0 to 100 (0 no effect, 100 complete control)) was 95%. The pest or weed control at 62 g/ha ([8]; post-emergence, Postemergence) was 0%, the pest or weed control at 125 g/ha ([8]; post-emergence, Postemergence) was 0% and the pest or weed control at 250 g/ha ([8]; post-emergence, Postemergence) was 0%. It also gave a pest or weed control at 31 g/ha ([8]; pre-emergence, Preemergence, 31 g ai/ha, 0 to 100 scale, 0 no effect, 100 complete control) of 0%, a pest or weed control at 62 g/ha ([8]; pre-emergence, Preemergence) of 0% and a pest or weed control at 125 g/ha ([8]; pre-emergence, Preemergence) of 0%. For the same molecule, the pest or weed control at 250 g/ha ([8]; pre-emergence, Preemergence) was 0%.
